{"source": "patent US20110201562A1", "about": "“FORMULATIONS AND METHOD FOR TREATING BALDNESS” (SEDERMA, priority 2005, published 2011)", "key": {"[1]": {"test_system": "blood vessels in the dermis", "assay": "Vasodilation on the scalp (statement, no method)"}, "hair follicles": {"test_system": "hair follicles", "assay": "Cultured hair follicles: growth monitored over 14 days", "assay_type": "cell-based", "conditions": "2 ppm in medium", "procedure": "Excess hair follicles prepared in the context of a micrograft transplantation session were collected for culturing in a medium similar to that reported in, and herein encorporated by reference, Philpott et al., Whole Hair Follicule Culture, Dermatologic Clinics 595 (Oct. 14, 1996). Said hair follicles were then individually incubated at 37° C. under an air plus CO2 (at 5%) atmosphere for 14 days. The explants were then divided into four groups: 1) a control group for the culture medium alone, 2) a positive control group which was exposed to a medium of 2 ppm Minoxidil®, 3) a test group exposed to the peptide biotinyl-GHK in a medium of 2 ppm biotinyl-GHK, and 4) a test group exposed to the peptide biotinyl-GHK in a medium of 5 ppm biotinyl-GHK. The culture medium was changed every 2 days. General morphology was observed on Day 1 and Day 14. Concomitantly, a fraction of the follicles were frozen for the purposes of conducting more advanced immunohistochemical studies. Growth in the follicles was monitored using a digital camera with images being taken on Day 0, Day 3, Day 5, Day 7, Day 11, and Day 14."}, "5α-reductase": {"test_system": "5α-reductase", "assay": "Inhibition of 5α-reductase (statement, no method)", "assay_type": "biochemical"}}, "data": [{"smiles": "O=c1cc(-c2ccc(O)cc2)oc2cc(O)cc(O)c12", "note": "[Apigenin]", "values": [{"measurement": "effect of use on the scalp on blood vessels", "setting": "[1]", "value": "dilates the blood vessels in the dermis"}]}, {"smiles": "Nc1cc(N2CCCCC2)nc(N)[n+]1[O-]", "note": "[Minoxidil®, Minoxidil, reference compound]", "values": [{"measurement": "more growth than observed from the control group", "setting": "hair follicles", "value": 58, "unit": "%"}]}, {"smiles": "CC1(C)CC[C@]2(C(=O)O)CC[C@]3(C)C(=CC[C@@H]4[C@@]5(C)CC[C@H](O)C(C)(C)[C@@H]5CC[C@]43C)[C@@H]2C1", "note": "[oleanolic acid]", "values": [{"measurement": "inhibitory action on the enzyme 5α-reductase", "setting": "5α-reductase", "value": "strong inhibitory action"}]}]}
